# In patent US7432260B2, “Pyrimidine compounds” (Cyclacel Limted, priority 2002, dated 2008):
# Tests used:
# [1] = molecular target: p70 ribosomal protein S6 kinase (Homo sapiens, UniProt P23443); experiment: Kinase assay p70/S6; assay type: biochemical; conditions: Table 3 selectivity panel; read-out: Kinase specificity IC50 p70/S6
# Description: (§1) Kinase assays. […] This was achieved by measurement of incorporation of radioactive phosphate from ATP into appropriate polypeptide substrates. Recombinant protein kinases and kinase complexes were produced or obtained commercially. Assays were performed using 96-well plates and appropriate assay buffers (typically 25 mM β-glycerophosphate, 20 mM MOPS, 5 mM EGTA, 1 mM DTT, 1 mM […], pH 7.4), into which were added 2-4 μg of active enzyme with appropriate substrates. The reactions were initiated by addition of Mg/ATP mix (15 mM MgCl2+100 μM ATP with 30-50 kBq per well of [γ-^32P]-ATP) and mixtures incubated as required at 30° C. Reactions were stopped on ice, followed by filtration through p81 filterplates or GF/C filterplates (Whatman Polyfiltronics, Kent, UK). After washing 3 times with 75 mM aq orthophosphoric acid, plates were dried, scintillant added and incorporated radioactivity measured in a scintillation counter (TopCount, Packard Instruments, Pangbourne, Berks, UK). Compounds for kinase assay were made-up as 10 mM stocks in DMSO and diluted into 10% DMSO inrassay buffer.
# [2] = molecular target: CaMKII (calmodulin-depependent kinase II); experiment: Kinase assay CaMKII; assay type: biochemical; conditions: Table 3 selectivity panel; read-out: Kinase specificity IC50 CaMKII
# Description: as §1
# MCF-7 = experiment: 72-h MTT cytotoxicity assay MCF-7; assay type: cell-based; conditions: Homo sapiens, MCF7, 72 h; Table 5; Breast
# Description: (§2) MTT cytotoxicity assay. […] Standard 72-h MTT (thiazolyl blue; 3-[4,5-dimethylthiazol-2-yl]-2,5-diphenyltetrazolium bromide) assays were performed (Haselsberger, K.; Peterson, D. C.; Thomas, D. G.; Darling, J. L. Anti Cancer Drugs 1996, 7, 331-8; Loveland, B. E.; Johns, T. G.; Mackay, I. R.; Vaillant, F.; Wang, Z. X.; Hertzog, P. J. Biochemistry International 1992, 27, 501-10). In short: cells were seeded into 96-well plates according to doubling time and incubated overnight at 37° C. Test compounds were made up in DMSO and a 1/3 dilution series prepared in 100 μL cell media, added to cells (in triplicates) and incubated for 72 ho at 37° C. MTT was made up as a stock of 5 mg/mL in cell media and filter-sterilised. Media was removed from cells followed by a wash with 200 μL PBS.
# (§3) MTT solution was then added at 20 μL per well and incubated in the dark at 37° C. for 4 h. MTT solution was removed and cells again washed with 200 μL PBS. MTT dye was solubilised with 200 μL per well of DMSO with agitation.
# HCT-116 = experiment: 72-h MTT cytotoxicity assay HCT-116; assay type: cell-based; conditions: Homo sapiens, HCT-116, 72 h; Table 5; Colon
# Description: as §2, §3
# HL60 = experiment: 72-h MTT cytotoxicity assay HL60; assay type: cell-based; conditions: Homo sapiens, HL-60, 72 h; Table 5; Promyelocytic leukaemia
# Description: as §2, §3
# SJSA-1 = experiment: 72-h MTT cytotoxicity assay SJSA-1; assay type: cell-based; conditions: Homo sapiens, SJSA-1, 72 h; Table 5; Osteogenic sarcoma
# Description: as §2, §3
# IMR-90 = experiment: 72-h MTT cytotoxicity assay IMR-90; assay type: cell-based; conditions: Homo sapiens, IMR-90, 72 h; Table 5; Foetal lung fibroblast (non-transformed)
# Description: as §2, §3
# WI38 = experiment: 72-h MTT cytotoxicity assay WI38; assay type: cell-based; conditions: Homo sapiens, WI-38, 72 h; Table 5; Foetal lung fibroblast (non-transformed)
# Description: as §2, §3
# Sequence of p70 ribosomal protein S6 kinase (P23443 91-352 limits assumed): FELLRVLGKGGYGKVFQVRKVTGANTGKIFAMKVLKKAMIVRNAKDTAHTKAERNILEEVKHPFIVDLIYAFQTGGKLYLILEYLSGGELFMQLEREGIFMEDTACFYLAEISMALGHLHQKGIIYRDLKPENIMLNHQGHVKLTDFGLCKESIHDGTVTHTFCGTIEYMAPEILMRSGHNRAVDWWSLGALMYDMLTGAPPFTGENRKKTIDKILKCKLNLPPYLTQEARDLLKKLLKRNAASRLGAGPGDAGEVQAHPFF
Compound,IC50 [1],IC50 [2],IC50 (MCF-7),IC50 (HCT-116),IC50 (HL60),IC50 (SJSA-1),IC50 (IMR-90),IC50 (WI38)
"CC[C@@H](N)C(=O)Nc1nc(C)c(-c2ccnc(Nc3cccc([N+](=O)[O-])c3)n2)s1 [Compound 16, (2R)-2-Amino-N-{4-methyl-5-[2-(3-nitro-phenylamino)-pyrimidin-4-yl]-thiazol-2-yl}-butyramide]",8000 nM,11000 nM,390 nM,300 nM,600 nM,1000 nM,1700 nM,1400 nM
"Cc1nc(NC(=O)[C@H](N)[C@@H](C)O)sc1-c1ccnc(Nc2cccc([N+](=O)[O-])c2)n1 [Compound 15, (2R,3R)-2-Amino-3-hydroxy-N-{4-methyl-5-[2-(3-nitro-phenylamino)-pyrimidin-4-yl]-thiazol-2-yl}-butyramide]",> 100000 nM,3900 nM,900 nM,600 nM,2200 nM,1900 nM,2500 nM,> 5000 nM
"CNc1nc(C)c(-c2ccnc(Nc3ccc(N4CCOCC4)cc3)n2)s1 [Compound 3, [4-(2-N-Methylamino-4-methyl-thiazol-5-yl)-pyrimidin-2-yl]-(4-morpholinophenyl)-amine]",2600 nM,> 100000 nM,–,–,–,–,–,–
"Cc1nc(N)sc1-c1ccnc(Nc2ccc(N3CCOCC3)cc2)n1 [Compound 1, [4-(2-Amino-4-methyl-thiazol-5-yl)-pyrimidin-2-yl]-(4-morpholin-4-yl-phenyl)-amine]",–,–,> 5000 nM,900 nM,1800 nM,> 5000 nM,> 5000 nM,> 5000 nM
"CNc1nc(C)c(-c2ccnc(Nc3ccc(N4CCN(Cc5ccccc5)CC4)cc3)n2)s1 [Compound 11, [4-(4-Benzyl-piperazin-1-yl)-phenyl]-[4-(4-methyl-2-methylamino-thiazol-5-yl)-pyrimidin-2-yl]-amine]",> 100000 nM,56000 nM,1900 nM,600 nM,1700 nM,4300 nM,31000 nM,22000 nM
